Results taken from patent US20130273096A1, “Therapeutic Sulfated Polysaccharides, Compositions Thereof, and Methods for Treating Patients” (priority 2011, published 2013).

What was measured:
HCAEC monolayers [1] = test: Heparan sulfate immunostaining of HCAEC monolayers; format: cell-based, human; conditions: 1004/mL for 24 hrs; confocal microscope; FIG. 9
Protocol: HCAEC monolayers were incubated with RS#1 at 1004/mL for 24 hrs and immunostaining for heparan sulfate was performed. The monolayers were then imaged using a laser scanning confocal microscope. One control and one RS#1-treated monolayers were stained and four representative fields from each case were imaged. In control monolayers, heparan sulfate immunostaining seemed to be concentrated on the cell-cell junction area (FIG. 9A).

HCAEC monolayers [2] = test: Water flux through HCAEC monolayers; format: cell-based, human; conditions: FIG. 8
[3] = system: human coronary artery endothelial cells (HCAEC); test: LDL permeability of HCAEC monolayers; format: cell-based; conditions: 12.5 to 12004/mL, 24 hrs to 5 day, FIGS. 6 and 7
Protocol: To test whether any of the RS isoforms could inhibit apoptosisn in human coronary artery endothelial cells (HCAEC), the HCAEC (human coronary artery endothelial cell) monolayers were incubated with each of two isoforms, RS#1 or RS#2, at concentrations ranging from 12.5 to 12004/mL for a period of time ranging from 24 hrs to 5 day, before the permeability of LDL (low density lipoprotein) was measured. In addition, some monolayers were induced to undergo apoptosis with TNF-α/CHX in the presence or absence of RS#1 or RS#2 and the permeability of LDL was measured. As shown in the figure, Dil means 11′-dioctadecyl-3,3-3′,3′-tetramethylindo-carbocyanide perchlorate. […] When the monolayers were induced to undergo apoptosis the permeability increased by ˜2-3-fold.

endothelial cells (EC) = test: Disaccharide analysis of heparan sulfate synthesized by endothelial cells; format: cell-based; conditions: EC exposed to RS vs control cell fraction; FIG. 4
Protocol: Purified heparin sulfate (HS) from the endothelial cells (EC) exposed or not exposed to RS #2 were incubated with a mixture of heparin lyases (heparinase I and II, 2.5 mlU each, available from Sigma) and the disaccharides produced by the enzymatic action were separated on a Phenosphere SAX column (Phenomenex, Torrance, Calif., USA) 150×4.6 mm using a NaCl gradient of 0-1 M in 30 min with a flux of 1 mL/min. Individual fractions (0.5 mL) were collected and counted using a micro-beta counter. […] The abbreviations used in the figure are: GlcNS(6S)=2-deoxy-6-O-sulfo-2-(sulfoamino)-α-D-glucopyranoside; GlcA=β-D-glucopyranuronosyl; GlcNS(3S,6S)=2-deoxy-3,6-di-O-sulfo-2-(sulfoamino)-α-D-glucopyranosyl; IdoA(2S)=2-O-sulfo-α-L-idopyranuronosyl; and, GlcNS(6S)OMe=methyl-O-2-deoxy-6-O-sulfo-2-(sulfoamino)-α-D-glucopyranoside.
As for the heparin stimulus, the HS produced by these cells have more of heparin sequences [-4) IdoA2S(1-4)GlcNS,6S] (heparin's basic structure). […] Counting from the left, the RS-induced heparans are chains of disaccharide pairs like sugar groups number 4-5 hooked together. Additionally, the major fraction of stimulated heparan sulfate produced are tri-sulfated discaccharides (Iodo2S-GlcNS,6S), typical of the major sequence in heparin.

endothelial cells = test: Heparan sulfate (HS) stimulus experiment; format: cell-based; conditions: vs control; FIG. 10
Protocol: A heparin sulfate (HS) stimulus experiment was performed as known in the art, using the four RS isoforms described herein. […] While the results shown here are limited to the RS isoforms studied, the type of polysaccharides to which this applies can be expanded to other classes of compounds that likely have similar effects, such as PUFAs, non-sulfated PS, other polymers, and the like. These RS (and other similar acting substances found in nature) can be used for in vivo HS and GAG production instead of administering HS or other GAGS for therapeutic effect.

Substance	coverage of heparan sulfate on HCAEC monolayers (immunostaining) (HCAEC monolayers [1])	decrease of water flux through HCAEC monolayers (HCAEC monolayers [2])	reduction of LDL permeability of control monolayers [3]	heparin sequences composed of the tri-sulfated disaccharide (ΔU2S-GlcNS,6S) in HS synthesized by EC (endothelial cells (EC))	cellular HS content (cellular fraction of heparans) (endothelial cells)
L-arginine (L-Arg) salt of rhamnan sulfate [RS #1]	increased the coverage	~50%	5 fold		
rhamnan sulfate [RS #2]		~20%	5 fold	significant increase	
rhamnan sulfate [RS #3]					no change
